Source: ChEMBL document CHEMBL1201862, “PubChem BioAssay data set” (2004)
Calls of active or inactive are those of the source.

Assays:
Jurkat = experiment: SAR Analysis of small molecule inhibitors of T-cell specific antigen receptor-induced NF-kB activation in a Jurkat cell line using a luminescence assay. [Related pubchem assays (depositor defined):AID435003, AID435012, AID465]; format: functional, cell-based; settings: Homo sapiens
[1] = growth suppression of PTEN-null colon cells, dose response, cell-based, HCT116 PTEN knockout (AID 1047); format: functional;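 also: HCT116 colon tumor cells with PTEN knocked out; cells exposed to compound for 60 hours before readout; potency for loss of cell viability measured by luminescence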
Hexokinase = biological target: T1, Hexokinase (Trypanosoma brucei, UniProt Q38C41); experiment: Confirmation assay for inhibitors of Trypanosoma brucei hexokinase 1-Analogue-first series. [Related pubchem assays (depositor defined):AID1430, AID1632, AID2516, AID2560, AID2579, AID2600, AID449725, AID492951]; format: functional
T1 sequence (Q38C41 whole entry): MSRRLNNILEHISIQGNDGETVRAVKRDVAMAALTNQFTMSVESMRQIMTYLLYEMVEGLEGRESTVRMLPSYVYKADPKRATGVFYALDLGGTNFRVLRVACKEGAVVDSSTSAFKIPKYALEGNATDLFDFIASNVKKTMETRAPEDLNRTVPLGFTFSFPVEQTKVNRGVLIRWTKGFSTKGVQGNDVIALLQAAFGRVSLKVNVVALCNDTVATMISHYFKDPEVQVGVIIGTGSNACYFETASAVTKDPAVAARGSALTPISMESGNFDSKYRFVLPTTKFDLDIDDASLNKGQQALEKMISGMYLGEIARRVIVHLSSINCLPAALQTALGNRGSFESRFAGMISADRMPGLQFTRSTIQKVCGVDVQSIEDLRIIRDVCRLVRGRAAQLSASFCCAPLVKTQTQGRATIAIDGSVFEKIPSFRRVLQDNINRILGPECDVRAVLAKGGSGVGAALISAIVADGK

[2] = biological target: Mitogen-activated protein kinase 8 (Homo sapiens, UniProt P45983); format: functional;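 also: value comes from one member of a kinome-wide kinase profiling panel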
Sequence of Mitogen-activated protein kinase 8 (P45983 whole entry): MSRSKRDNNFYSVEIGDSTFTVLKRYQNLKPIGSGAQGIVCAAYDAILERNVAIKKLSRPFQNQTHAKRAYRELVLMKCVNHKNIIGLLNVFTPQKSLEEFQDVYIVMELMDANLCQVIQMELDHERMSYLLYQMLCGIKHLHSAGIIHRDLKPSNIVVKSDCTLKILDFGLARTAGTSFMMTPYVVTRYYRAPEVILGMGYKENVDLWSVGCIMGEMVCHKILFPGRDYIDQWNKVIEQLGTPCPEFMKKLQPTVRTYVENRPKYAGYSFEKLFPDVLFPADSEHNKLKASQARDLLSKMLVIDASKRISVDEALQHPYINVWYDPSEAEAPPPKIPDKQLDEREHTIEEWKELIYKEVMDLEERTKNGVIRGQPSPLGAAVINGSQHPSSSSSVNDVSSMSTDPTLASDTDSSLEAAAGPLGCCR

Aurora kinase A = Aurora kinase A (Homo sapiens, UniProt O14965); format: functional;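 also: value from the Navigating the Kinome kinase panel profiling, panel entry STK6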
Sequence of Aurora kinase A (O14965 whole entry): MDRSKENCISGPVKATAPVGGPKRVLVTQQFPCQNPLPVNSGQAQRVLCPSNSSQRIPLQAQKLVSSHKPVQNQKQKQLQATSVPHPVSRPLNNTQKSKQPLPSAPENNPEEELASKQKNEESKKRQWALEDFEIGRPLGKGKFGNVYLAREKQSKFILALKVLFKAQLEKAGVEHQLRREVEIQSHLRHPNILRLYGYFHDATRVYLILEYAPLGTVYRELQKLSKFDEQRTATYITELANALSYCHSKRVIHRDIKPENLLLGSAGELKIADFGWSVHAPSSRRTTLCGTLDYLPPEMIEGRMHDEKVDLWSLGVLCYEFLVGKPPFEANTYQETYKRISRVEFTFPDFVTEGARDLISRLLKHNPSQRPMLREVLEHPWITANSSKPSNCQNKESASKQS

[3] = biological target: MAP kinase-activated protein kinase 3 (Homo sapiens, UniProt Q16644); format: functional;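 also: value comes from a kinome-wide profiling panel in which MAPKAPK3 is one of the panel members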
Sequence of MAP kinase-activated protein kinase 3 (Q16644 whole entry): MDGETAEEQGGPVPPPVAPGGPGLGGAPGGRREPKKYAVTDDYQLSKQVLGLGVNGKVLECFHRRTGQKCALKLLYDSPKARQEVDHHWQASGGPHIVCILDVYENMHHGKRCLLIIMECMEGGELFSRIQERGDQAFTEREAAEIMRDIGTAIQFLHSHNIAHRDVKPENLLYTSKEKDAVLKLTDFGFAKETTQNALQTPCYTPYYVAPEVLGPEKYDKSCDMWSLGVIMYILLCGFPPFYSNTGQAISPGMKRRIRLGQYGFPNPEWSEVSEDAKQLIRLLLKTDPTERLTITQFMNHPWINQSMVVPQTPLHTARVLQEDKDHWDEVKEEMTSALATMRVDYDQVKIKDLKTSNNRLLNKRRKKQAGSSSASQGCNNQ

[4] = biological target: cAMP-dependent protein kinase catalytic subunit PRKX (Homo sapiens, UniProt P51817); format: functional
Sequence of cAMP-dependent protein kinase catalytic subunit PRKX (P51817 whole entry): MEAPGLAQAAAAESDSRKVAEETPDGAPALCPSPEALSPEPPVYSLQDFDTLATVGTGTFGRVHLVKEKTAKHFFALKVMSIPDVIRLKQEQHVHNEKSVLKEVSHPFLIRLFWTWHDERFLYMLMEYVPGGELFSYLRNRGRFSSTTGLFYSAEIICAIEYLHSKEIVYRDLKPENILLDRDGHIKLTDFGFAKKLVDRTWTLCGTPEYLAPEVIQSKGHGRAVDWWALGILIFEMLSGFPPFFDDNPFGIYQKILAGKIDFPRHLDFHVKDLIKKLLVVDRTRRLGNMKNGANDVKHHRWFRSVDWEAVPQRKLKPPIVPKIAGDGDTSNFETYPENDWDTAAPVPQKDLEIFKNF

[5] = biological target: RAC-alpha serine/threonine-protein kinase (Homo sapiens, UniProt P31749); format: functional;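 also: AKT1 affinity measured as one member of a kinome-wide kinase profiling panel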
Sequence of RAC-alpha serine/threonine-protein kinase (P31749 whole entry): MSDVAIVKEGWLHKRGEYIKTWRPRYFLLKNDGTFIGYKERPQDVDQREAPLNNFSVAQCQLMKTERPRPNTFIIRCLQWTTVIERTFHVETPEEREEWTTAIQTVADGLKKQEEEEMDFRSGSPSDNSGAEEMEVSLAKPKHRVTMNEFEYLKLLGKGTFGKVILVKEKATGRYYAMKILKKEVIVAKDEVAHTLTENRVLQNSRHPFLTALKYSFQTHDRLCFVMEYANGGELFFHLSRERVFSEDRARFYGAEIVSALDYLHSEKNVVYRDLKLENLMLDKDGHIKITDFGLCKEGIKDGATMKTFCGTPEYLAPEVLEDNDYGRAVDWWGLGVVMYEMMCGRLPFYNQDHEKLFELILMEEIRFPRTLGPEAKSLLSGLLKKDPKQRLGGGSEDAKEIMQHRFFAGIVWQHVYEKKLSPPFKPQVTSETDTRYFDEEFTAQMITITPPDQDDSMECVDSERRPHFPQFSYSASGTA

[6] = biological target: Tyrosine-protein kinase Fer (Homo sapiens, UniProt P16591); format: functional;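 also: FER tested as one member of a kinome panel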
Sequence of Tyrosine-protein kinase Fer (P16591 whole entry): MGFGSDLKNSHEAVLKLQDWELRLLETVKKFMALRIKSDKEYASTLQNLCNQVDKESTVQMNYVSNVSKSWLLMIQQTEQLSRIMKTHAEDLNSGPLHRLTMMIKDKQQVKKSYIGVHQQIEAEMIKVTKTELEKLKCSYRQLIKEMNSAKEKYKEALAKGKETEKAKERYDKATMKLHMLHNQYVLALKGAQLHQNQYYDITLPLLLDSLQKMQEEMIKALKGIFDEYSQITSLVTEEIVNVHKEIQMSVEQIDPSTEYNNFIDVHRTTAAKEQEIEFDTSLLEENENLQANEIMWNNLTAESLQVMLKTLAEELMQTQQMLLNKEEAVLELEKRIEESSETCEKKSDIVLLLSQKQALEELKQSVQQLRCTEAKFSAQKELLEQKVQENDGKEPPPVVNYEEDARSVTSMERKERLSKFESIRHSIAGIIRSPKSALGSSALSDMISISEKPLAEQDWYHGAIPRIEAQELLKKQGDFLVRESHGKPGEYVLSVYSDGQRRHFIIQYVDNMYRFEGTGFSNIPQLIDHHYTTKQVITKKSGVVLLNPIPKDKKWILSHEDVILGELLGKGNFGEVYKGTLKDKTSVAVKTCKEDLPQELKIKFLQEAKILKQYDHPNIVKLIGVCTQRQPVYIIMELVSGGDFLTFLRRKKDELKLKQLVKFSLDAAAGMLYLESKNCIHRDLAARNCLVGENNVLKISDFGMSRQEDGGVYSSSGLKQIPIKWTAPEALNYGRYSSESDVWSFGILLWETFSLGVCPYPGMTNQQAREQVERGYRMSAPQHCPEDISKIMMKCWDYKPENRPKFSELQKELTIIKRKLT

[7] = biological target: Calcium/calmodulin-dependent protein kinase type 1 (Homo sapiens, UniProt Q14012); format: functional
Sequence of Calcium/calmodulin-dependent protein kinase type 1 (Q14012 whole entry): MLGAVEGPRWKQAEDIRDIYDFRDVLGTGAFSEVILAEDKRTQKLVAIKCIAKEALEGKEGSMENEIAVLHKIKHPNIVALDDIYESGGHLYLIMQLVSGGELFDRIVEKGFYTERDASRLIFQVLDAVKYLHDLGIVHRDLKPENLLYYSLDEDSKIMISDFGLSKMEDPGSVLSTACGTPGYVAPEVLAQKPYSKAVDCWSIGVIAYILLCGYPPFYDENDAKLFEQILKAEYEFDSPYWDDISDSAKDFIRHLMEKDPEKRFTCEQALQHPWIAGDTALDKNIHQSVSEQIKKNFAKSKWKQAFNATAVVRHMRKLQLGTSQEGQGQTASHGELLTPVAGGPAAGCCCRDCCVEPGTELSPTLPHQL

[8] = biological target: Glycogen synthase kinase-3 beta (Homo sapiens, UniProt P49841); format: functional;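 also: value comes from a broad kinome profiling panel, with GSK3B as the panel member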
Sequence of Glycogen synthase kinase-3 beta (P49841 whole entry): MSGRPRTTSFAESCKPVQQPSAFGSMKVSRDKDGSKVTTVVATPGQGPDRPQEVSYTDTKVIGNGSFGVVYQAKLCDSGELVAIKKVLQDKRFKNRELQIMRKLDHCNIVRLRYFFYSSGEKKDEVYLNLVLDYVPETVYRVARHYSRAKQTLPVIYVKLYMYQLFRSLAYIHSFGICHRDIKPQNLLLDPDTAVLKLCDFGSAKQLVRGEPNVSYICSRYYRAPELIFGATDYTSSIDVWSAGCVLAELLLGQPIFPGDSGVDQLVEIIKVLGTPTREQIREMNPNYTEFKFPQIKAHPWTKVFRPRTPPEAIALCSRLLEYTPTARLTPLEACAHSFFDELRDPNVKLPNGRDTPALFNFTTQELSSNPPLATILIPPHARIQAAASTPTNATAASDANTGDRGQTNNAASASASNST

Aminopeptidase N = biological target: T2, Aminopeptidase N (Plasmodium falciparum FcB1/Columbia, UniProt O96935); experiment: P. falciparum M1AAP inhibitors, biochemical, fluorogenic H-Leu-NHMec substrate, 1536-well (AID 1445); set-up: species or system Plasmodium falciparum 3D7, 3D7
T2 sequence (O96935 whole entry): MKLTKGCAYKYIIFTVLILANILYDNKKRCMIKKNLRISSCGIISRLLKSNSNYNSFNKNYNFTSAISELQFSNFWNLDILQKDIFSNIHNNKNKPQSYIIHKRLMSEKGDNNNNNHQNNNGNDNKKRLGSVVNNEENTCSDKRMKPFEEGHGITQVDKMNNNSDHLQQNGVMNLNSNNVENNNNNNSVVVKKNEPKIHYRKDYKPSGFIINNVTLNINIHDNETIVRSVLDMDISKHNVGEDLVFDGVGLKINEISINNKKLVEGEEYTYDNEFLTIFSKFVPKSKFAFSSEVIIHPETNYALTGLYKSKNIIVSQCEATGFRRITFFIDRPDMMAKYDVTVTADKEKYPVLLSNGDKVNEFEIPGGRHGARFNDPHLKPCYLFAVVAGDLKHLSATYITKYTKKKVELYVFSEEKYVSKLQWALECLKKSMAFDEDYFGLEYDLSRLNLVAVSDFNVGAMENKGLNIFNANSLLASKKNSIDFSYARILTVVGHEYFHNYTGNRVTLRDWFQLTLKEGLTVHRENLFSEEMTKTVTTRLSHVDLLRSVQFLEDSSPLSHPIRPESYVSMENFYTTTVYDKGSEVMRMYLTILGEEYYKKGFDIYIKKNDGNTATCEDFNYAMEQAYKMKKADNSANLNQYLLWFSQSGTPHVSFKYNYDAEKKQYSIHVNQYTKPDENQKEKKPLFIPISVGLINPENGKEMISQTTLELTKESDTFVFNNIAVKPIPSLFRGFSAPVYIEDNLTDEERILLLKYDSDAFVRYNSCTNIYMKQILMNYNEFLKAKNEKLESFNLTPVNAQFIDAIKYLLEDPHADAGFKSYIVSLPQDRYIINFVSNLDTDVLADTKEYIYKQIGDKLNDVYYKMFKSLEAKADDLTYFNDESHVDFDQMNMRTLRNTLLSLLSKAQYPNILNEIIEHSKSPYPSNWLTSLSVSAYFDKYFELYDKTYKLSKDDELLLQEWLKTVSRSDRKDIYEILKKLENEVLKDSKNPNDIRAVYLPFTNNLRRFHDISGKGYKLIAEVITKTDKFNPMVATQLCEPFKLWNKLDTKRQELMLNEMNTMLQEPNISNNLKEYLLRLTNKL

[9] = biological target: T3, Zinc finger protein mex-5 (Caenorhabditis elegans, UniProt Q9XUB2); experiment: MEX-5/TCR-2 RNA interaction inhibitors, dose response, biochemical, C. elegans, fluorescence polarization (AID 1960)
T3 sequence (Q9XUB2 whole entry): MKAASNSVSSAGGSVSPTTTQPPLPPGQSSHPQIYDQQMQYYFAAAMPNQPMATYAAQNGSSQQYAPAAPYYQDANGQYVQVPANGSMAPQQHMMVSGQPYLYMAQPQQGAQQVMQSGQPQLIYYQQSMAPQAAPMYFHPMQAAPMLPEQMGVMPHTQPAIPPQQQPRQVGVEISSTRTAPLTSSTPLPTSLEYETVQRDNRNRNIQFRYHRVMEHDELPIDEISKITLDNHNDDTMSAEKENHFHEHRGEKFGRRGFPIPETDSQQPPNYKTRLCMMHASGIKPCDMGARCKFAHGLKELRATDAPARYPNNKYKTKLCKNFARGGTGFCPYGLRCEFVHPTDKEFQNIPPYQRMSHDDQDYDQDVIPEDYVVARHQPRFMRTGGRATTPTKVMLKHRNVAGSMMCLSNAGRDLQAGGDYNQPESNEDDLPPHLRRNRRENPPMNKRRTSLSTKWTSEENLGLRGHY

Cytochrome P450 2C19 = Cytochrome P450 2C19 (Homo sapiens, UniProt P33261); experiment: Cytochrome panel assay with activity outcomes. Panel member name: p450-cyp2c19 Compounds with AC50 equal or less than 10 uM are considered active; format: functional; settings: read-out: AC50
Sequence of Cytochrome P450 2C19 (P33261 whole entry): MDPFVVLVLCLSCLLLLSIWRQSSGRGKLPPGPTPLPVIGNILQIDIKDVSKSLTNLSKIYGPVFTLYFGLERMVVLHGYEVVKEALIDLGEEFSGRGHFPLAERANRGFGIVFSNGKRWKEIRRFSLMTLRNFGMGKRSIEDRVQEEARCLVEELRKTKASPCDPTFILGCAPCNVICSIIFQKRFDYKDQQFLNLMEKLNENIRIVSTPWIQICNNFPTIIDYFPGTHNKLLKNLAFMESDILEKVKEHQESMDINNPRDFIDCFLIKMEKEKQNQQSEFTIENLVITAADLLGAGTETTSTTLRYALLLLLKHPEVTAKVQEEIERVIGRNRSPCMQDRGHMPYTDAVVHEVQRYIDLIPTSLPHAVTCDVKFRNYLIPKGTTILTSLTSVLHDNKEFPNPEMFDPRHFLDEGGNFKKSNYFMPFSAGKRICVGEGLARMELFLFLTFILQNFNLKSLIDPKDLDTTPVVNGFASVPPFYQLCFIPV

[10] = biological target: RNA-editing ligase 1, mitochondrial (Trypanosoma brucei brucei, UniProt P86926); experiment: TbREL1 ligase inhibitors, dose response, biochemical, fluorescence, Trypanosoma brucei (AID 1117295); format: functional
Sequence of RNA-editing ligase 1, mitochondrial (P86926 whole entry): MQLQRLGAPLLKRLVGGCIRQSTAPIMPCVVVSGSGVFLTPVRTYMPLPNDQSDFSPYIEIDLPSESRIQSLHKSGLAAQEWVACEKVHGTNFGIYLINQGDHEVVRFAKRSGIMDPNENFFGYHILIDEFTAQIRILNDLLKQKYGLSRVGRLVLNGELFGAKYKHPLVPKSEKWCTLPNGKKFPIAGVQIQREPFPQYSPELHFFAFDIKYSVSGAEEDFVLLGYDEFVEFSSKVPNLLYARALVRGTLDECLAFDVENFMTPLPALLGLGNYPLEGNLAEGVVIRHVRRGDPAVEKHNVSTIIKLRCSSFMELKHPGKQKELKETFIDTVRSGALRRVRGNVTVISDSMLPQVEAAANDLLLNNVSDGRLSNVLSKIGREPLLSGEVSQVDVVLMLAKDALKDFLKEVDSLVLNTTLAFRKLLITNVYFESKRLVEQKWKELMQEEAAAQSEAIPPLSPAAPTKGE

CCCC(=O)NC(c1ccc(Cl)cc1)c1ccc2cccnc2c1O (stereo not given)
IC50 (Jurkat): 4.13 µM (active)

Cc1ccc(-n2sc3ccccc3c2=O)cc1
EC50 [1]: 31.1 µM (active)
IC50 (Hexokinase): 2.64 µM (active)

Cc1cccc(NC(=O)Nc2ccc3c(c2)CCc2sc4ncnc(N)c4c2-3)c1
Ki [2]: > 3.16 µM (inactive)
Ki (Aurora kinase A): 0.0794 µM (active)
Ki [3]: > 10 µM (inactive)
Ki [4]: > 1.58 µM (inactive)
Ki [5]: > 7.94 µM (inactive)
Ki [6]: > 1.58 µM (inactive)
Ki [7]: > 6.31 µM (inactive)
Ki [8]: 3.16 µM (active)

N/C(=N\N=C/c1ccc(-c2ccc(O)c(C(=O)O)c2)o1)N[N+](=O)[O-]
IC50 (Aminopeptidase N): 10.2 µM (active)
EC50 [9]: 26.1 µM (active)
AC50 (Cytochrome P450 2C19): 39.8 µM (inconclusive)
IC50 [10]: 21.2 µM (inactive)
